Tests used:
Assay type in all cases: cell-based, human
LNCaP/AR(cs) cells = test: Endogenous gene transcriptional assay (real-time PCR of androgen responsive genes);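 as to ORM1 expression, agonist transcription: LNCaP/AR(cs) cells without added R1881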;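 as to PLD1 expression, agonist transcription: LNCaP/AR(cs) cells without added R1881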;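 as to PSA expression, agonist transcription: LNCaP/AR(cs) cells without added R1881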;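 as to SLUG expression, agonist transcription: LNCaP/AR(cs) cells without added R1881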;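 as to TMPRSS2 expression, agonist transcription: LNCaP/AR(cs) cells without added R1881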
Procedure: (§1) Total RNA was isolated using the Aurum™ total RNA isolation kit (BIO-RAD, Hercules, Calif.). RNA (1 μg) was reverse transcribed using the iScript cDNA synthesis kit (BIO-RAD, Hercules, Calif.) to produce cDNA. Real-time PCR was performed using the Applied Biosystems 7900HT instrument and SYBR Green PCR Master Mix (Applied Biosystems, Foster City, Calif.). PCR reactions were performed in 6 μL according to the manufacturer's protocol and a thermocycle protocol of 95° C. for 10 minutes followed by 40 cycles of 95° C. for 15 seconds and 58° C. for 1 minute. Androgen responsive gene (PSA, SLUG, TMPRSS2, STEAP4, FKBP5, ORM1, NOV, FASN, NKX3.1, AMIGO2, BDNF, CAMK2N1, HPGD, NCAPD3, PLD1) expression was normalized to GAPDH expression and expressed relative to vehicle treatment of the parental cell line.
(§2) Gene expression was normalized to GAPDH as described above.

LNCaP/AR-Luc cells = test: as above; conditions: 1 nM R1881 or 30 μM compound, vehicle=1.00
Procedure: as §1, §2

LNCaP cells = test: Transcriptional reporter assay (probasin-luciferase)
Procedure: With the exception of the LNCaP/AR(cs)-Luc cells that contain an integrated androgen responsive reporter, cells were transiently transfected using Lipofectin® (Life Technologies) according to the manufacturer's protocol. […] Following transfection, the cells were incubated for 4 hours.
Following 48 hour incubation the medium was removed and the cells were lysed in 40 μL of lysis buffer (25 mM Tris Phosphate, 2 mM CDTA, 10% Glycerol, 0.5% Triton X-100, 2 mM DTT).

[1] = tested on: Class 1 ARN-509- and MDV3100-resistant cell lines; test: Proliferation assay (CellTiter-Glo), agonist and antagonist mode

## CNC(=O)c1ccc(N2C(=S)N(c3cnc(C#N)c(C(F)(F)F)c3)C(=O)C23CCC3)cc1F [ARN-509]
LNCaP/AR(cs) cells; −R1881, 0.3 μM
  CAM2KN1 expression, agonist transcription: 0.90
  FASN expression, agonist transcription: 0.46
  FKBP5 expression, agonist transcription: 0.99
  HPGD expression, agonist transcription: 0.81
  NCAPD3 expression, agonist transcription: 0.72
  NKX3.1 expression, agonist transcription: 1.11
  NOV expression, agonist transcription: 1.12
  ORM1 expression, agonist transcription: 1.37
  PLD1 expression, agonist transcription: 1.28
  PSA expression, agonist transcription: 0.44
  SLUG expression, agonist transcription: 0.38
  STEAP4 expression, agonist transcription: 0.94
  TMPRSS2 expression, agonist transcription: 0.99
LNCaP/AR(cs) cells; −R1881, 1 μM
  AMIGO2 expression, agonist transcription: 0.69
  BDNF expression, agonist transcription: 0.93
  CAM2KN1 expression, agonist transcription: 0.76
  FASN expression, agonist transcription: 0.40
  FKBP5 expression, agonist transcription: 0.71
  HPGD expression, agonist transcription: 0.56
  NCAPD3 expression, agonist transcription: 0.74
  NKX3.1 expression, agonist transcription: 0.68
  NOV expression, agonist transcription: 1.00
  ORM1 expression, agonist transcription: 1.79
  PLD1 expression, agonist transcription: 0.66
  PSA expression, agonist transcription: 0.49
  SLUG expression, agonist transcription: 0.42
  STEAP4 expression, agonist transcription: 0.77
  TMPRSS2 expression, agonist transcription: 0.64
LNCaP/AR(cs) cells; −R1881, 3 μM
  AMIGO2 expression, agonist transcription: 0.89
  BDNF expression, agonist transcription: 1.03
  CAM2KN1 expression, agonist transcription: 0.99
  FASN expression, agonist transcription: 0.42
  FKBP5 expression, agonist transcription: 0.91
  HPGD expression, agonist transcription: 0.78
  NCAPD3 expression, agonist transcription: 0.73
  NKX3.1 expression, agonist transcription: 0.73
  NOV expression, agonist transcription: 1.11
  ORM1 expression, agonist transcription: 1.20
  PLD1 expression, agonist transcription: 0.88
  PSA expression, agonist transcription: 0.58
  SLUG expression, agonist transcription: 0.52
  STEAP4 expression, agonist transcription: 1.05
  TMPRSS2 expression, agonist transcription: 1.04
LNCaP/AR(cs) cells; −R1881, 10 μM
  AMIGO2 expression, agonist transcription: 0.65
  BDNF expression, agonist transcription: 1.03
  CAM2KN1 expression, agonist transcription: 0.78
  FASN expression, agonist transcription: 0.41
  FKBP5 expression, agonist transcription: 0.75
  HPGD expression, agonist transcription: 0.61
  NCAPD3 expression, agonist transcription: 0.74
  NKX3.1 expression, agonist transcription: 0.85
  NOV expression, agonist transcription: 0.98
  ORM1 expression, agonist transcription: 0.97
  PLD1 expression, agonist transcription: 0.65
  PSA expression, agonist transcription: 0.61
  SLUG expression, agonist transcription: 0.56
  STEAP4 expression, agonist transcription: 0.56
  TMPRSS2 expression, agonist transcription: 0.62
LNCaP/AR(cs) cells; −R1881, 30 μM
  AMIGO2 expression, agonist transcription: 2.41
  BDNF expression, agonist transcription: 1.80
  CAM2KN1 expression, agonist transcription: 1.56
  FASN expression, agonist transcription: 1.30
  FKBP5 expression, agonist transcription: 1.87
  HPGD expression, agonist transcription: 1.86
  NCAPD3 expression, agonist transcription: 1.34
  NKX3.1 expression, agonist transcription: 2.24
  NOV expression, agonist transcription: 2.07
  ORM1 expression, agonist transcription: 1.35
  PLD1 expression, agonist transcription: 1.33
  PSA expression, agonist transcription: 1.13
  SLUG expression, agonist transcription: 1.36
  STEAP4 expression, agonist transcription: 1.01
  TMPRSS2 expression, agonist transcription: 2.78
LNCaP/AR-Luc cells
  AMIGO2 gene expression: 1.13
  BDNF gene expression: 1.17
  CAM2KN1 gene expression: 1.13
  FASN gene expression: 1.08
  FKBP5 gene expression: 1.16
  HPGD gene expression: 1.88
  NKX3.1 gene expression: 1.14
  NOV gene expression: 2.55
  ORM1 gene expression: 1.27
  PLD1 gene expression: 1.45
  PSA gene expression: 0.60
  SLUG gene expression: 1.13
  STEAP4 gene expression: 0.88
  TMPRSS2 gene expression: 0.74
LNCaP cells; [Antagonists] = 50 μM
  Agonist Transcriptional Reporter Assay (% Max Activity): + (‘+’ = <5)
LNCaP cells; [Antagonists] = 50 μM in presence of R1881
  Antagonist Transcriptional Reporter Assay (% Max Activity): + (‘+’ = <5)
[1]
  Effect on growth inhibitory activity of R1881 in Class 1 cells: antagonized
[1]; Homo sapiens, 168 h, read-out: Antagonist Proliferation Assay (% Viability)
  viability at 0.0001 µM: > 30%
[1]; absence of added androgens
  Ligand independent growth of Class 1 cells in presence of compound: unaltered

Source: patent US9617602B2, “Methods and compositions for determining resistance to androgen receptor therapy” (Aragon Pharmaceuticals, Inc., priority 2012, dated 2017)
